Tests used:
Test in all cases: KINOMEscan Max
Assay type in all cases: binding
KIT(V559D.V654A) = molecular target: T1, KIT(V559D.V654A) (Homo sapiens, UniProt P10721, V559D/V654A)
T1 construct: purchased Ambit Kinomescan (contract panel)
Summary of the method: (§1)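 Competition binding assay: test compound competes with an immobilized, active-site directed ligand for DNA-tagged kinase. Kinase captured on the ligand is quantified by qPCR of the DNA tag.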

[1] = molecular target: T2, EGFR(L747-E749del. A750P) (Homo sapiens, UniProt P00533, A750P/DEL747-749); conditions: 1 μM
T2 construct: purchased Ambit (KINOMEscan Max panel service)
Summary of the method: as §1

KIT(D816V) = molecular target: T3, KIT(D816V) (Homo sapiens, UniProt P10721, D816V)
T3 construct: purchased Ambit (KINOMEscan Max service)
Summary of the method: as §1

MKNK1 = MKNK1 (Homo sapiens, UniProt Q9BUB5)
Summary of the method: as §1

MARK4 = molecular target: T4, MARK4 (Homo sapiens, UniProt Q96L34); conditions: 1 μM
T4 construct: purchased Ambit (KINOMEscan Max service)
Summary of the method: as §1

YANK2 = molecular target: T5, YANK2 (Homo sapiens, UniProt Q9NY57)
T5 construct: purchased Ambit Kinomescan (contract screening service)
Summary of the method: as §1

LATS2 = molecular target: T6, LATS2 (Homo sapiens, UniProt Q9NRM7); conditions: 1 μM
T6 construct: purchased Ambit (KINOMEscan Max service)
Summary of the method: as §1

PRP4 = molecular target: T7, PRP4 (Homo sapiens, UniProt Q13523)
T7 construct: purchased Ambit (KINOMEscan Max service)
Summary of the method: as §1

PAK6 = PAK6 (Homo sapiens, UniProt Q9NQU5)
Summary of the method: as §1

EPHA5 = molecular target: T8, EPHA5 (Homo sapiens, UniProt P54756); conditions: 1 μM
T8 construct: purchased Ambit (KINOMEscan Max panel service)
Summary of the method: as §1

ULK2 = molecular target: T9, ULK2 (Homo sapiens, UniProt Q8IYT8)
T9 construct: purchased Ambit (KINOMEscan Max service)
Summary of the method: as §1

CAMK2A = CAMK2A (Homo sapiens, UniProt Q9UQM7)
Summary of the method: as §1

FLT3 = molecular target: T10, FLT3 (Homo sapiens, UniProt P36888)
T10 construct: purchased Ambit Kinomescan (contract panel, KINOMEscan Max)
T10 sequence (P36888 27-993): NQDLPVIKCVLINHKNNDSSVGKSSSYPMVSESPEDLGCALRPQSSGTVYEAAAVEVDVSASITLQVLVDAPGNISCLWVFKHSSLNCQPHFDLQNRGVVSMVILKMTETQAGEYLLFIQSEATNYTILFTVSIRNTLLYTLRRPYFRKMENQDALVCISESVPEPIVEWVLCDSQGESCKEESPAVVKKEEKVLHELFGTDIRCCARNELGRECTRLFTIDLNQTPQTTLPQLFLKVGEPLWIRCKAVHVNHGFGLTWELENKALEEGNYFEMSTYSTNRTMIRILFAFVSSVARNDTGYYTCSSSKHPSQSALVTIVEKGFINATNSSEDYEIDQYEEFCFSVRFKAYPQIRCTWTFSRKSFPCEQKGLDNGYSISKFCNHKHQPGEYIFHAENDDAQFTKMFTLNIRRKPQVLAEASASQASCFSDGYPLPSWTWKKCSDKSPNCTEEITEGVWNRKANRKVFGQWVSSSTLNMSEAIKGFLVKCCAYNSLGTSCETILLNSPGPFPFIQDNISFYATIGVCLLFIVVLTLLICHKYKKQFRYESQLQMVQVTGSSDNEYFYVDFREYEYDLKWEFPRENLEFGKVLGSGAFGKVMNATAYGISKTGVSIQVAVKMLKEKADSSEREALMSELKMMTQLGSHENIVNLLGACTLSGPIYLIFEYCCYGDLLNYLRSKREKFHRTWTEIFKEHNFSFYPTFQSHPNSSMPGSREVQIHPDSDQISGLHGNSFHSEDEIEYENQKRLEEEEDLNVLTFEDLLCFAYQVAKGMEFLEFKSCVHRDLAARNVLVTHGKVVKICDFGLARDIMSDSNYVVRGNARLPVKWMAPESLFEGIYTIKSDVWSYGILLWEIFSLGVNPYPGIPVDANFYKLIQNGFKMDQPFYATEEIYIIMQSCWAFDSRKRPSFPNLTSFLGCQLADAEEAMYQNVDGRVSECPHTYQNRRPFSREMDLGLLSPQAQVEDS
Summary of the method: as §1

PCTK3 = PCTK3 (Homo sapiens, UniProt Q07002)
Sequence of PCTK3 (Q07002 whole entry): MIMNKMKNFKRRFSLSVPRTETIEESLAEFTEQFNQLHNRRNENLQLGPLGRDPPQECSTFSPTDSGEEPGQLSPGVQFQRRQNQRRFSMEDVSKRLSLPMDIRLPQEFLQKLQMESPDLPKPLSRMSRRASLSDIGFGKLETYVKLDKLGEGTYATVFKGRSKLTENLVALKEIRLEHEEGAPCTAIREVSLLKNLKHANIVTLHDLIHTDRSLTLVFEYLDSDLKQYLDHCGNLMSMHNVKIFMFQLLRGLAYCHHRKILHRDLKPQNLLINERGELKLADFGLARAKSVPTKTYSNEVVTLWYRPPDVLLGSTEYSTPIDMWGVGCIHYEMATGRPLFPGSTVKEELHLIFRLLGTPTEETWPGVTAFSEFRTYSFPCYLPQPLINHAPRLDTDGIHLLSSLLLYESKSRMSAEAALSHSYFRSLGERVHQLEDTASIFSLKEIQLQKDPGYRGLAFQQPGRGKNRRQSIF
Summary of the method: as §1

MAP3K2 = molecular target: T11, MAP3K2 (Homo sapiens, UniProt Q9Y2U5)
T11 construct: purchased Ambit Kinomescan (contract panel)
T11 sequence (Q9Y2U5 whole entry): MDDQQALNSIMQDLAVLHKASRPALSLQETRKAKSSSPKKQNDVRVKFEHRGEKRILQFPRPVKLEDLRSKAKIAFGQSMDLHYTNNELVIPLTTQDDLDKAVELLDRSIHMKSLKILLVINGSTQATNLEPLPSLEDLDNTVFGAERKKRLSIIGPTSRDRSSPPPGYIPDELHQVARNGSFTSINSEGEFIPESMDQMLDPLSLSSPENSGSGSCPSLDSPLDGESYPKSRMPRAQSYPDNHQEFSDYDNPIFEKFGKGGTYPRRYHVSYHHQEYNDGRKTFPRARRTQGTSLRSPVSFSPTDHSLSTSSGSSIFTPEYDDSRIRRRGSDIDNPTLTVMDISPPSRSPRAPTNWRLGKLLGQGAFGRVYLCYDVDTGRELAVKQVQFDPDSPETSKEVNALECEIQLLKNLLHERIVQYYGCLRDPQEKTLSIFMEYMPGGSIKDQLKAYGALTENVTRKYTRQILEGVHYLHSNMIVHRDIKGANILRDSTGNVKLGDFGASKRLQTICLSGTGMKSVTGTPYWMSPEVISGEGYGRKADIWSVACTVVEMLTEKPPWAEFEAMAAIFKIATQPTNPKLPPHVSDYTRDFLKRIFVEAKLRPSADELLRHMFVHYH
Summary of the method: as §1

LTK = molecular target: T12, LTK (Homo sapiens, UniProt P29376)
T12 construct: purchased Ambit Kinomescan (contract panel)
Summary of the method: as §1

MAP3K1 = molecular target: T13, MAP3K1 (Homo sapiens, UniProt Q13233)
T13 construct: purchased Ambit Kinomescan (contract panel)
Summary of the method: as §1

AURKC = molecular target: T14, AURKC (Homo sapiens, UniProt Q9UQB9)
T14 construct: purchased Ambit (KINOMEscan Max service)
Summary of the method: as §1

RET = molecular target: T15, RET (Homo sapiens, UniProt P07949)
T15 construct: DNA tag (qPCR read-out)
Summary of the method: as §1

INSR = molecular target: T16, INSR (Homo sapiens, UniProt P06213)
T16 construct: DNA tag (qPCR read-out)
Summary of the method: as §1

[2] = molecular target: ABL1(H396P)nonphosphorylated (Homo sapiens, UniProt P00519, H396P)
Summary of the method: as §1

SIK2 = molecular target: T17, SIK2 (Homo sapiens, UniProt Q9H0K1)
T17 construct: DNA tag (qPCR read-out)
Summary of the method: as §1

TYRO3 = molecular target: T18, TYRO3 (Homo sapiens, UniProt Q06418)
T18 construct: purchased Ambit Kinomescan (contract screening service)
Summary of the method: as §1

EPHB3 = molecular target: T19, EPHB3 (Homo sapiens, UniProt P54753)
T19 construct: DNA tag (qPCR read-out)
T19 sequence (P54753 34-998): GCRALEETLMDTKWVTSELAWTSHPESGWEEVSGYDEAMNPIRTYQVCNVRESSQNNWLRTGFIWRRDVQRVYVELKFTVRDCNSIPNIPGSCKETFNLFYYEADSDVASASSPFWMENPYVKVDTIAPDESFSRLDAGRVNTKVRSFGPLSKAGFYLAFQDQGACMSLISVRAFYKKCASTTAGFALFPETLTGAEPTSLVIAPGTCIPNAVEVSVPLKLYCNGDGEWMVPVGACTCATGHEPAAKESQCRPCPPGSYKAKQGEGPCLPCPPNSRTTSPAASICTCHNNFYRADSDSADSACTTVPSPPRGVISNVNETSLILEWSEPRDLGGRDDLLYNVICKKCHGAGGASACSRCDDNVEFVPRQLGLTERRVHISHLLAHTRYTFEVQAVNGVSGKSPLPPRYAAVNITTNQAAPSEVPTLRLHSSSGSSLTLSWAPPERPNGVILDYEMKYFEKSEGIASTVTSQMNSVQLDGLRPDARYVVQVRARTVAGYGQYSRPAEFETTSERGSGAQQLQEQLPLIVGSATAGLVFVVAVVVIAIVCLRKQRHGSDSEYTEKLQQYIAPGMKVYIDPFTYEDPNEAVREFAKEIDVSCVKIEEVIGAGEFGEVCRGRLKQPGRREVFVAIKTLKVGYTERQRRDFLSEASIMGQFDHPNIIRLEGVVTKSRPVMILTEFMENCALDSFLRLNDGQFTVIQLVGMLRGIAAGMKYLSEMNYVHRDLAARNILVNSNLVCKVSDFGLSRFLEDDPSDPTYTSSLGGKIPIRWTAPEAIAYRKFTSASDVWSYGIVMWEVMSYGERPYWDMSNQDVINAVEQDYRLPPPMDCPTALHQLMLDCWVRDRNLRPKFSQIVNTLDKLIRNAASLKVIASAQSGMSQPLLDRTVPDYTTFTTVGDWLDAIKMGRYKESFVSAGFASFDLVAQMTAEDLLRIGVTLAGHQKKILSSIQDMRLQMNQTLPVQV
Summary of the method: as §1

CSNK1D = molecular target: T20, CSNK1D (Homo sapiens, UniProt P48730)
T20 construct: DNA tag (qPCR read-out); purchased Ambit Kinomescan
T20 sequence (P48730 whole entry): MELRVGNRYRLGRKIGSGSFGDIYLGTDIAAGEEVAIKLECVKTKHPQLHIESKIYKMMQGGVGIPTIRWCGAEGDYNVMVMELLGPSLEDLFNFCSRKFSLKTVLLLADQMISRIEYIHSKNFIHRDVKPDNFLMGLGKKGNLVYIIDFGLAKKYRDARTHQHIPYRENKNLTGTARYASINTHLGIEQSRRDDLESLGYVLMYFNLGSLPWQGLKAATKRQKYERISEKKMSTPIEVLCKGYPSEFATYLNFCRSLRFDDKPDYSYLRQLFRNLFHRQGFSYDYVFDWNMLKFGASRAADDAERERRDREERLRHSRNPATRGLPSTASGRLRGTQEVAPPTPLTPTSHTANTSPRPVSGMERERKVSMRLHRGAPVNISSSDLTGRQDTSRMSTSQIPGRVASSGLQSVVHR
Summary of the method: as §1

PIK3CA(M1043I) = molecular target: T21, PIK3CA(M1043I) (Homo sapiens, UniProt P42336, M1043I)
T21 construct: DNA tag (qPCR read-out)
Summary of the method: as §1

AKT1 = molecular target: T22, AKT1 (Homo sapiens, UniProt P31749)
T22 construct: purchased Ambit (KINOMEscan Max service)
Summary of the method: as §1

EPHA7 = molecular target: T23, EPHA7 (Homo sapiens, UniProt Q15375)
T23 construct: purchased Ambit (KINOMEscan Max panel service)
Summary of the method: as §1

MEK4 = molecular target: T24, MEK4 (Homo sapiens, UniProt P45985)
T24 construct: purchased Ambit (KINOMEscan Max service)
Summary of the method: as §1

EPHA2 = EPHA2 (Homo sapiens, UniProt P29317)
Summary of the method: as §1

AURKB = AURKB (Homo sapiens, UniProt Q96GD4)
Summary of the method: as §1

EPHA4 = molecular target: T25, EPHA4 (Homo sapiens, UniProt P54764)
T25 construct: purchased Ambit (KINOMEscan Max panel service)
T25 sequence (P54764 20-986): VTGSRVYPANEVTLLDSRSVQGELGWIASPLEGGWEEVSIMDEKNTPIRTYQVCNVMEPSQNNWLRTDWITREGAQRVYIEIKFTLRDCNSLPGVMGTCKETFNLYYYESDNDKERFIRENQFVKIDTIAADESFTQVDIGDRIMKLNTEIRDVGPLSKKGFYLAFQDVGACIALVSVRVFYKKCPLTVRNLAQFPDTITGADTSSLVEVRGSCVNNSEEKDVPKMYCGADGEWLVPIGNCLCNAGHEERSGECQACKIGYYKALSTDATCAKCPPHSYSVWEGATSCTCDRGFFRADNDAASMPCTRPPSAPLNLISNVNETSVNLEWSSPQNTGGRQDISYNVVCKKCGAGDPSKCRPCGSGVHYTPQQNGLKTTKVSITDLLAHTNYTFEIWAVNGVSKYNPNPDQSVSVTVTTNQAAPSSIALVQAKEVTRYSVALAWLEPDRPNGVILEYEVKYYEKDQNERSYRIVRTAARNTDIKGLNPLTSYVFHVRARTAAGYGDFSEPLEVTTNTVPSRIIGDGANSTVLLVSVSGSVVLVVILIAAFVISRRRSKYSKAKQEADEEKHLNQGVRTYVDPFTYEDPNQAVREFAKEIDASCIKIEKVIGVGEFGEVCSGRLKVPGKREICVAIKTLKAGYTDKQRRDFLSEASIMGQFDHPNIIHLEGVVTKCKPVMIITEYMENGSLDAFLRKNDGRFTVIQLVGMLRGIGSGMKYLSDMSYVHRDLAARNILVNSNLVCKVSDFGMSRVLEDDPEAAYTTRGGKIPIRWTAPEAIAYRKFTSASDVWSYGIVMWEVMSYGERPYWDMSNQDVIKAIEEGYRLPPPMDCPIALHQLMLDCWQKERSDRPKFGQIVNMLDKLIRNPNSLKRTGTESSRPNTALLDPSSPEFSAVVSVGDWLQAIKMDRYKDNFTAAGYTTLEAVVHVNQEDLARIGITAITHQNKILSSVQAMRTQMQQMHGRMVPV
Summary of the method: as §1

DAPK3 = DAPK3 (Homo sapiens, UniProt O43293)
Sequence of DAPK3 (O43293 whole entry): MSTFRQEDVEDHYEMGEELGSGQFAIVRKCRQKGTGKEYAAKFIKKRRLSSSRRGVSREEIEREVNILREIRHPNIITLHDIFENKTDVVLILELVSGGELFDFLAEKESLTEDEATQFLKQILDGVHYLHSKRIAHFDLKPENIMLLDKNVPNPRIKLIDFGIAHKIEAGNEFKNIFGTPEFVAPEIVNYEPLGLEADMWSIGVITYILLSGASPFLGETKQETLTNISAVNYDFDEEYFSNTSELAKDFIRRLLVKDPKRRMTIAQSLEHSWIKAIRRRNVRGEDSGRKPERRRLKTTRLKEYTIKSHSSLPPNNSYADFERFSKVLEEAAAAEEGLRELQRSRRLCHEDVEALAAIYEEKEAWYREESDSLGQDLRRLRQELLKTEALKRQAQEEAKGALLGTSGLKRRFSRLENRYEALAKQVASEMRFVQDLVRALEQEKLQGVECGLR
Summary of the method: as §1

PIK3CB = molecular target: T26, PIK3CB (Homo sapiens, UniProt P42338)
T26 construct: DNA tag (qPCR read-out)
Summary of the method: as §1

## NCCCNc1nc2c(Br)c(Br)c(Br)c(Br)c2[nH]1 [Compound 11, N-(3-aminopropyl)-4,5,6,7-tetrabromo-1H-benzo[d]imidazol-2-amine]
KIT(V559D.V654A)
  remaining binding at 1 µM: 100%
[1]
  % binding: 100%
KIT(D816V)
  remaining binding at 1 µM: 60%
MKNK1
  remaining binding at 1 µM: 100%
MARK4
  % binding: 84%
YANK2
  remaining binding at 1 µM: 100%
LATS2
  % binding: 70%
PRP4
  remaining binding at 1 µM: 84%
PAK6
  remaining binding at 1 µM: 99%
EPHA5
  % binding: 100%
ULK2
  remaining binding at 1 µM: 60%
CAMK2A
  remaining binding at 1 µM: 96%
FLT3
  remaining binding at 1 µM: 100%
PCTK3
  remaining binding at 1 µM: 92%
MAP3K2
  remaining binding at 1 µM: 100%
LTK
  remaining binding at 1 µM: 100%
MAP3K1
  remaining binding at 1 µM: 100%
AURKC
  remaining binding at 1 µM: 83%
RET
  remaining binding at 1 µM: 100%
INSR
  remaining binding at 1 µM: 41%
[2]
  remaining binding at 1 µM: 100%
SIK2
  remaining binding at 1 µM: 100%
TYRO3
  remaining binding at 1 µM: 100%
EPHB3
  remaining binding at 1 µM: 91%
CSNK1D
  remaining binding at 1 µM: 17%
PIK3CA(M1043I)
  remaining binding at 1 µM: 100%
AKT1
  remaining binding at 1 µM: 70%
EPHA7
  remaining binding at 1 µM: 100%
MEK4
  remaining binding at 1 µM: 82%
EPHA2
  remaining binding at 1 µM: 92%
AURKB
  remaining binding at 1 µM: 94%
EPHA4
  remaining binding at 1 µM: 100%
DAPK3
  remaining binding at 1 µM: 73%
PIK3CB
  remaining binding at 1 µM: 100%
